Source: the supplement of paper PMC10307832

Assays:
Assay in all cases: relative viability (nuclei count vs DMSO), 5 days (fraction); higher = more cells survive
Daporinad + Phenformin = compound: O=C(/C=C/c1cccnc1)NCCCCC1CCN(C(=O)c2ccccc2)CC1 [Daporinad] + N=C(N)NC(=N)NCCc1ccccc1 [Phenformin] (partner 250 µM)
Outline: (§1)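 A single step with final 0.05% Triton X-100, 1% formaldehyde and 1 ug/ml Hoechst fixed the cells and stained nuclei 5 days after treatment. Lung cancer cell lines in 1536-well plates had been treated by pin tool the day after seeding with one drug alone or a fixed anchor-drug dose plus five library-drug doses (not always all listed) in √10 steps, and nuclei were counted on 4× images. Relative viability is the ratio of nuclei in treated wells to nuclei in vehicle wells, taken as the median of duplicate plates.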

R406 + Tozasertib = compound: COc1cc(Nc2ncc(F)c(Nc3ccc4c(n3)NC(=O)C(C)(C)O4)n2)cc(OC)c1OC [R406] + Cc1cc(Nc2cc(N3CCN(C)CC3)nc(Sc3ccc(NC(=O)C4CC4)cc3)n2)n[nH]1 [Tozasertib] (partner 0.1 µM)
Outline: as §1

R406 + Pemetrexed = compound: COc1cc(Nc2ncc(F)c(Nc3ccc4c(n3)NC(=O)C(C)(C)O4)n2)cc(OC)c1OC [R406] + Nc1nc2[nH]cc(CCc3ccc(C(=O)N[C@@H](CCC(=O)O)C(=O)O)cc3)c2c(=O)[nH]1 [Pemetrexed] (partner 0.2 µM)
Outline: as §1

R406 + AZD7762 = compound: COc1cc(Nc2ncc(F)c(Nc3ccc4c(n3)NC(=O)C(C)(C)O4)n2)cc(OC)c1OC [R406] + NC(=O)Nc1cc(-c2cccc(F)c2)sc1C(=O)N[C@H]1CCCNC1 [AZD7762] (partner 0.2 µM)
Outline: as §1

| Cell Line | relative viability (Daporinad + Phenformin; first compound 0.0005 µM) | relative viability (Daporinad + Phenformin; first compound 0.001581 µM) | relative viability (Daporinad + Phenformin; first compound 0.005 µM) | relative viability (Daporinad + Phenformin; first compound 0.01581 µM) | relative viability (R406 + Tozasertib; first compound 0.08 µM) | relative viability (R406 + Tozasertib; first compound 0.253 µM) | relative viability (R406 + Tozasertib; first compound 0.8 µM) | relative viability (R406 + Tozasertib; first compound 2.53 µM) | relative viability (R406 + Tozasertib; first compound 8 µM) | relative viability (R406 + Pemetrexed; first compound 0.08 µM) | relative viability (R406 + Pemetrexed; first compound 0.253 µM) | relative viability (R406 + Pemetrexed; first compound 0.8 µM) | relative viability (R406 + Pemetrexed; first compound 2.53 µM) | relative viability (R406 + Pemetrexed; first compound 8 µM) | relative viability (R406 + AZD7762; first compound 0.08 µM) | relative viability (R406 + AZD7762; first compound 0.253 µM) | relative viability (R406 + AZD7762; first compound 0.8 µM) | relative viability (R406 + AZD7762; first compound 2.53 µM) | relative viability (R406 + AZD7762; first compound 8 µM) |
| --- | --- | --- | --- | --- | --- | --- | --- | --- | --- | --- | --- | --- | --- | --- | --- | --- | --- | --- | --- |
| HCC-827 | 0.442 | 0.478 | 0.421 | 0.461 | 0.421 | 0.463 | 0.45 | 0.386 | 0.233 | 0.259 | 0.262 | 0.264 | 0.229 | 0.193 | 0.336 | 0.239 | 0.234 | 0.176 | 0.134 |
| HOP-62 | 0.493 | 0.746 | 0.765 | 0.526 | 0.356 | 0.456 | 0.362 | 0.366 | 0.554 | 0.315 | 0.348 | 0.297 | 0.412 | 0.344 | 0.76 | 0.813 | 0.793 | 0.531 | 0.585 |
| LC-2-ad | 0.568 | 0.707 | 0.605 | 0.677 | 0.509 | 0.482 | 0.368 | 0.422 | 0.351 | 0.281 | 0.322 | 0.238 | 0.238 | 0.216 | 0.856 | 0.898 | 0.89 | 0.827 | 0.343 |
| LCLC-97TM1 | 0.414 | 0.454 | 0.485 | 0.458 | 0.217 | 0.318 | 0.209 | 0.216 | 0.226 | 0.182 | 0.2 | 0.171 | 0.183 | 0.194 | 0.207 | 0.313 | 0.327 | 0.164 | 0.219 |
| LCLC-103H | 0.351 | 0.341 | 0.358 | 0.327 | 0.524 | 0.495 | 0.569 | 0.503 | 0.376 | 0.477 | 0.462 | 0.486 | 0.499 | 0.376 | 0.662 | 0.844 | 0.813 | 0.747 | 0.569 |
| LK-2 | 0.651 | 0.305 | 0.314 | 0.159 | 0.17 | 0.163 | 0.166 | 0.182 | 0.186 | 0.192 | 0.326 | 0.38 | 0.191 | 0.126 | 0.373 | 0.407 | 0.333 | 0.354 | 0.104 |
| LOU-NH91 | 0.645 | 0.727 | 0.798 | 1.02 | 0.723 | 0.764 | 0.644 | 0.472 | 0.466 | 0.362 | 0.399 | 0.37 | 0.455 | 0.38 | 0.718 | 0.769 | 0.706 | 0.574 | 0.473 |
| NCI-H520 | 0.554 | 0.286 | 0.187 | 0.22 | 0.499 | 0.469 | 0.45 | 0.347 | 0.219 | 0.698 | 0.724 | 0.675 | 0.285 | 0.153 | – | – | – | – | – |
| NCI-H661 | 0.266 | 0.284 | 0.308 | 0.288 | 0.337 | 0.322 | 0.32 | 0.348 | 0.324 | 0.943 | 0.92 | 0.86 | 0.767 | 0.685 | – | – | – | – | – |
